Some test systems named below: MALME-3M melanoma; NCI-H460 lung; SF-539 CNS; HCC-2998 colon; UACC-257 melanoma; OVCAR-4 ovarian; ACHN renal; CCRF-CEM leukemia; HOP-92 NSCLC; NCI/ADR-RES ovarian.
Experiment in all cases: NCI tumour cell line growth inhibition, 48 h

The results in this text go back to PubChem BioAssay (NCI).

The structures appear in SMILES notation.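 Step 1: Grow cells in 96-well plates. Step 2: Expose to compound for 48 hours at 5 concentrations. Step 3: Interpolate endpoints linearly; if unreached, use highest concentration. The concentration for 50% growth inhibition is given as GI50. At the TGI there is no net growth.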

For `N#C[S-].[La+3].c1ccc(-c2ccccn2)nc1.c1ccc(-c2ccccn2)nc1.c1ccc(-c2ccccn2)nc1`, the GI50 is 23.3 µM in the test with MALME-3M melanoma; 22.5 µM in the test with NCI-H460 lung; 33.2 µM with SF-539 CNS; 17.4 µM with HCC-2998 colon; 24.3 µM in the test on UACC-257 melanoma; 20.4 µM with OVCAR-4 ovarian. The TGI with MALME-3M melanoma was 60.9 µM; with NCI-H460 lung, 88.2 µM; in the test with SF-539 CNS it was over 100 µM; with HCC-2998 colon, over 100 µM; in the test on UACC-257 melanoma, 65.2 µM; with OVCAR-4 ovarian, over 100 µM.

As for `Clc1cc(N/N=C(\c2ccccc2)c2ccccn2)ncn1`, the TGI in the test on MALME-3M melanoma is 3.35 µM; with NCI-H460 lung, 83.1 µM; in the test on SF-539 CNS, 3.26 µM; in the test on HCC-2998 colon, over 100 µM; in the test on ACHN renal, over 100 µM; with UACC-257 melanoma, 4.65 µM. Also, the TGI was 1.3 µM in the test on CCRF-CEM leukemia, over 100 µM in the test with HOP-92 NSCLC and over 100 µM in the test with OVCAR-4 ovarian.

For `Brc1ccc2[nH]c3c(C4=NCCC4)nccc3c2c1`, the TGI with MALME-3M melanoma was 16.1 µM; in the test with NCI-H460 lung, over 32.8 µM; in the test on SF-539 CNS it was over 25.4 µM; with HCC-2998 colon it was 39.1 µM; with UACC-257 melanoma, over 49.7 µM; with CCRF-CEM leukemia, over 30.1 µM. Moreover, the TGI was over 100 µM with NCI/ADR-RES ovarian, over 74.2 µM with HOP-92 NSCLC and over 87.7 µM with OVCAR-4 ovarian.

In the case of `CC1OC(OC2C(O)CC(OC3C(O)CC(OC4CCC5(C)C(CCC6C5CCC5(C)C(C7=CC(=O)OC7)C(O)CC65O)C4)OC3C)OC2C)CC(O)C1O` (centres undefined), the TGI worked out at 0.816 µM in the test on MALME-3M melanoma; 0.532 µM with NCI-H460 lung; 0.217 µM in the test on SF-539 CNS; 14.6 µM in the test on HCC-2998 colon; 0.473 µM in the test on ACHN renal; 2.07 µM in the test with UACC-257 melanoma. Also, the TGI in the test with CCRF-CEM leukemia is over 100 µM; in the test with NCI/ADR-RES ovarian, 0.968 µM; with HOP-92 NSCLC, 1.85 µM.

As for `Cc1ccc(S(=O)(=O)OC[C@@]2(C)CC[C@]3(C)CC[C@]4(C)C(=C3C2)C=C[C@@H]2[C@@]3(C)CCCNC(C)(C)[C@@H]3CC[C@]24C)cc1`, the GI50 with MALME-3M melanoma was 1.68 µM; in the test on SF-539 CNS it was 1.71 µM; with ACHN renal it was 1.72 µM; in the test with CCRF-CEM leukemia, 2.14 µM; with NCI/ADR-RES ovarian, 2.05 µM; with HOP-92 NSCLC, 1.45 µM. The GI50 in the test with OVCAR-4 ovarian was 1.66 µM. The TGI with MALME-3M melanoma stood at 3.26 µM; in the test on SF-539 CNS it was 3.11 µM; in the test with ACHN renal, 3.1 µM; with CCRF-CEM leukemia, 6.06 µM; with NCI/ADR-RES ovarian, 4.59 µM; in the test with HOP-92 NSCLC, 2.97 µM. The TGI with OVCAR-4 ovarian was 3.16 µM.

With `CCOC(=O)c1ccc(N(CCOS(C)(=O)=O)CCOS(C)(=O)=O)cc1`, the TGI in the test with MALME-3M melanoma was over 100 µM; with NCI-H460 lung, over 100 µM; in the test with SF-539 CNS, 62.1 µM; in the test on HCC-2998 colon it was over 100 µM; with ACHN renal, 63.7 µM; with UACC-257 melanoma, over 100 µM. Besides, the TGI was 77.6 µM in the test with CCRF-CEM leukemia, over 100 µM in the test with NCI/ADR-RES ovarian, over 100 µM in the test with HOP-92 NSCLC and over 100 µM in the test with OVCAR-4 ovarian.

As to `Oc1c(Br)cc2c(c1Br)-c1c(c(O)c3c4c1=NCCC=4C=N3)NCC2`, the TGI is 27.9 µM in the test on NCI-H460 lung; 26.5 µM in the test on SF-539 CNS; 20 µM with UACC-257 melanoma; 9.49 µM in the test on CCRF-CEM leukemia; 34.3 µM in the test on NCI/ADR-RES ovarian; 35.4 µM with HOP-92 NSCLC. In the test with OVCAR-4 ovarian, this molecule returned a TGI of 23.5 µM.

For `CCCCCCCCCCCC1N=C(N)N=C(N)N1c1cccc(Br)c1` (centres undefined), the GI50 with MALME-3M melanoma was 1.77 µM; in the test with NCI-H460 lung it was 0.0779 µM; in the test with HCC-2998 colon it was 1.16 µM; with ACHN renal, 2.52 µM; with NCI/ADR-RES ovarian it was 14.6 µM; in the test on HOP-92 NSCLC it was 1.51 µM. The TGI in the test on MALME-3M melanoma came out at 3.38 µM; in the test with NCI-H460 lung, 1.65 µM; in the test on HCC-2998 colon it was 2.42 µM; with ACHN renal, 7.05 µM; in the test with NCI/ADR-RES ovarian it was 39.6 µM; in the test on HOP-92 NSCLC, 4.34 µM.

As for `O=c1cc(-c2cccc(OC(F)(F)F)c2)[nH]c2ccc(N3CCCC3)cc12`, the TGI in the test with MALME-3M melanoma is over 100 µM; in the test on SF-539 CNS, 0.000621 µM; in the test with HCC-2998 colon, 0.011 µM; with ACHN renal, 51.3 µM; in the test with UACC-257 melanoma, over 100 µM; in the test on CCRF-CEM leukemia, over 100 µM. Further, the TGI was 0.000673 µM in the test with NCI/ADR-RES ovarian and over 100 µM with HOP-92 NSCLC.

In the case of `Cc1c2cc[n+](Cc3ccc(I)cc3)cc2c(C)c2c1[nH]c1ccccc12`, the TGI in the test with MALME-3M melanoma was 1.81 µM; with NCI-H460 lung, 1.93 µM; in the test on SF-539 CNS, over 15.8 µM; in the test on HCC-2998 colon it was 5.25 µM; in the test on UACC-257 melanoma it was 2.09 µM; in the test with CCRF-CEM leukemia, 9.51 µM. In addition, the TGI was over 25 µM in the test on NCI/ADR-RES ovarian and 3.3 µM in the test on HOP-92 NSCLC.

For the molecule `[CH3][Sn]([CH3])([CH3])[S]C(=S)N1CCOCC1`, the GI50 in the test with MALME-3M melanoma was 3.49 µM; with NCI-H460 lung, 1.05 µM; in the test with HCC-2998 colon, 3.41 µM; in the test with UACC-257 melanoma, 1.22 µM; with CCRF-CEM leukemia, 0.0701 µM; in the test with NCI/ADR-RES ovarian it was 1.82 µM. Moreover, the figures for the GI50 in the test with HOP-92 NSCLC and in the test on OVCAR-4 ovarian were 1.84 µM and 0.818 µM, respectively. The TGI was determined as 14.8 µM with MALME-3M melanoma; 4.38 µM in the test on NCI-H460 lung; 15.7 µM in the test with HCC-2998 colon; 14.9 µM in the test on UACC-257 melanoma; 1.67 µM in the test with CCRF-CEM leukemia; 11.2 µM in the test on NCI/ADR-RES ovarian. Moreover, the TGI is 6.48 µM with HOP-92 NSCLC and 4.21 µM in the test with OVCAR-4 ovarian.

As to `O=C(Nc1cccc(-n2ccc3c(NC(=O)c4ccccc4)ncnc32)c1)Nc1ccc(Cl)c(C(F)(F)F)c1`, the GI50 is 1.99 µM in the test on MALME-3M melanoma; 2.13 µM in the test on NCI-H460 lung; 1.98 µM in the test on SF-539 CNS; 4.2 µM with HCC-2998 colon; 1.59 µM in the test with ACHN renal; 2.67 µM with UACC-257 melanoma. The GI50 in the test on CCRF-CEM leukemia was 0.655 µM; in the test with NCI/ADR-RES ovarian, 3.73 µM; in the test on HOP-92 NSCLC it was 0.556 µM; in the test on OVCAR-4 ovarian, 2.36 µM. Moreover, the TGI in the test on MALME-3M melanoma came out at 9.01 µM; in the test on NCI-H460 lung it was 9.88 µM; in the test on SF-539 CNS it was 9.91 µM; in the test on HCC-2998 colon, 14.9 µM; in the test on ACHN renal, 7.38 µM; in the test on UACC-257 melanoma it was 8.43 µM. The TGI with CCRF-CEM leukemia was found to be 9.04 µM; in the test with NCI/ADR-RES ovarian, 32 µM; in the test with HOP-92 NSCLC it was 4.31 µM; in the test with OVCAR-4 ovarian, 8.18 µM.
